From PMC5476731, “Molecular Basis of N,N-Diethyl-3-Methylbenzamide (DEET) in Repelling the Common Bed Bug, Cimex lectularius” (Frontiers in Physiology, 2017)

Columns and labels:
Experiment in all cases: two-electrode voltage clamp, Xenopus oocytes
Type in all cases: cell-based, Cimex lectularius
[1] = system: T1, OR36/ORCO; conditions: agonist; co-expressed ORCO; -80 mV; pH 7.6 Ringer; text rounds to 7.1 × 10^−6
T1 construct: cRNA (pT7Ts vector) co-injected with ORCO into Xenopus laevis oocytes; with Odorant receptor coreceptor

[2] = system: T2, OR20/ORCO; conditions: agonist; co-expressed ORCO; -80 mV; pH 7.6 Ringer; text rounds to 7.5 × 10^−6
T2 construct: cRNA (pT7Ts vector) co-injected with ORCO into Xenopus laevis oocytes; with Odorant receptor coreceptor

[3] = system: T3, OR37/ORCO; conditions: agonist; co-expressed ORCO; -80 mV; pH 7.6 Ringer; text b25 prints 6.5 × 10^−6 (discrepant)
T3 construct: cRNA (pT7Ts vector) co-injected with ORCO into Xenopus laevis oocytes; with Odorant receptor coreceptor

## CCN(CC)C(=O)c1cccc(C)c1 [DEET, N,N-Diethyl-3-Methylbenzamide]
[1]
  EC50: 7.096 × 10^−6 v/v
[2]
  EC50: 7.468 × 10^−6 v/v
[3]
  EC50: 6.684 × 10^−6 v/v
